Assay results published in patent US20140329863A1 (priority 2011, published 2014).
Where two headings read alike, the source gives them in different places.

Legend:
[1] = system: N2a-cl3 cells
[2] = system: PrP^Sc in dividing ScN2a-cl3 cells; format: cell-based, mouse; conditions: for Inhibition of Baseline PrP^5c (%) Dividing Cells ELISA: SPC assay
[3] = system: PrP^Sc in nondividing ScN2a-cl3 cells; format: cell-based, mouse; conditions: SPC assay, nondividing cells
[4] = read-out: Potency (μM) ELISA (EC50), FDA-approved drugs, ScN2a-c13 assay, dividing cells
[5] = FDA-approved drugs, ScN2a-c13 assay, dividing cells, read-out: Potency (μM) ELISA (EC50)
[6] = Table 29, 2-AMT analogs tested for potency, usually n = 3 or more

Compound | Inhibition of Baseline PrP^5c (%) Non-dividing Cells ELISA [3] [%] | Dividing Cells V (cell viability percentages) [1] [%] | Non-dividing Cells V (cell viability percentages) [1] [%] | Inhibition of Baseline PrP^5c (%) Dividing Cells ELISA ([2]; dividing cells) [%] | also measured
CC(=O)c1ccc2c(c1)N(CCCN(C)C)c1ccccc1S2 [Acepromazine] | – | – | – | – | Potency (μM) Cell Viability ([1]; mouse): >10 µM; EC50 [2, 4]: 6.93 µM
CCCCc1oc2ccccc2c1C(=O)c1cc(I)c(OCCN(CC)CC)c(I)c1 [Amiodarone] | – | – | – | – | Potency (μM) Cell Viability ([1]; mouse): >10 µM
CN1CCc2cccc3c2[C@H]1Cc1ccc(O)c(O)c1-3 [Apomorphine] | – | – | – | – | EC50 [2, 4]: > 10 µM
COc1ccccc1OCCNCC(O)COc1cccc2[nH]c3ccccc3c12 (stereo not drawn) [Carvedilol] | – | – | – | – | Potency (μM) Cell Viability ([1]; mouse): 6.096 µM; EC50 [2, 4]: 2.28 µM
Nc1c(/N=N/c2ccc(-c3ccc(/N=N/c4cc(S(=O)(=O)O)c5ccccc5c4N)cc3)cc2)cc(S(=O)(=O)O)c2ccccc12 [Congo Red] | – | – | – | – | Potency (μM) Cell Viability ([1]; mouse): >10 µM; EC50 [2, 4]: 0.452 µM
CN1C[C@H](C(=O)N[C@]2(C)O[C@@]3(O)[C@@H]4CCCN4C(=O)[C@H](Cc4ccccc4)N3C2=O)C[C@@H]2c3cccc4[nH]cc(c34)C[C@H]21 [Dihydroergotamine] | – | – | – | – | Potency (μM) Cell Viability ([1]; mouse): >10 µM; EC50 [2, 4]: 6.44 µM
CCOc1ccc(/N=N/c2ccc(N)cc2N)cc1 [Ethoxazine] | – | – | – | – | Potency (μM) Cell Viability [1]: >10 µM; EC50 [2, 5]: 4.76 µM
Cc1cccc(Nc2nc(-c3ccncc3)cs2)n1 [IND7, (6-Methyl-pyridin-2-yl)-(4-pyridin-4-yl-thiazol-2-yl)-amine] | – | – | – | – | EC50 ([2]; AMT analogs tested for potency): 1 µM; EC50 [2, 6]: 1 µM
Cc1ccc(Nc2nc(-c3ccncc3)cs2)nc1 [IND29, (5-Methyl-pyridin-2-yl)-(4-pyridin-4-yl-thiazol-2-yl)-amine] | – | – | – | – | EC50 ([2]; AMT analogs tested for potency): 1.57 µM; EC50 [2, 6]: 1.57 µM
Cc1ccc(Nc2nc(-c3c(-c4ccccc4)noc3C)cs2)nc1 [IND36, [4-(5-Methyl-3-phenyl-isoxazol-4-yl)-thiazol-2-yl]-(5-methyl-pyridin-2-yl)-amine] | – | – | – | – | EC50 ([2]; AMT analogs tested for potency): > 32 µM; EC50 [2, 6]: > 32 µM
COc1ccc(-c2csc(Nc3cc(C)ccn3)n2)cc1OC [IND42, [4-(3,4-Dimethoxy-phenyl)-thiazol-2-yl]-(4-methyl-pyridin-2-yl)-amine] | – | – | – | – | EC50 ([2]; AMT analogs tested for potency): 1 µM; EC50 [2, 6]: 1 µM
COc1ccc(-c2csc(Nc3ccc(C(F)(F)F)cn3)n2)cc1OC [IND43, [4-(3,4-Dimethoxy-phenyl)-thiazol-2-yl]-(5-trifluoromethyl-pyridin-2-yl)-amine] | – | – | – | – | EC50 ([2]; AMT analogs tested for potency): 2.53 µM; EC50 [2, 6]: 2.53 µM
Cc1ccnc(Nc2nc(-c3cc(-c4ccc(Cl)cc4)no3)cs2)c1 [IND64, {4-[3-(4-Chloro-phenyl)-isoxazol-5-yl]-thiazol-2-yl}-(4-methyl-pyridin-2-yl)-amine] | – | – | – | – | EC50 ([2]; AMT analogs tested for potency): 0.85 µM; EC50 [2, 6]: 0.85 µM
Cc1ccc(Nc2nc(-c3ccc(-c4ccccn4)s3)cs2)nc1 [IND76, (5-Methyl-pyridin-2-yl)-[4-(5-pyridin-2-yl-thiophen-2-yl)-thiazol-2-yl]-amine] | – | – | – | – | EC50 ([2]; AMT analogs tested for potency): 1.23 µM; EC50 [2, 6]: 1.23 µM
COc1ccc(-c2csc(Nc3cnccn3)n2)cc1OC [IND82, [4-(3,4-Dimethoxy-phenyl)-thiazol-2-yl]-pyrazin-2-yl-amine] | – | – | – | – | EC50 ([2]; AMT analogs tested for potency): 15.6 µM; EC50 [2, 6]: 15.6 µM
COc1ccc(-c2csc(Nc3cc4ccccc4cn3)n2)cc1 [IND86, Isoquinolin-3-yl-[4-(4-methoxy-phenyl)-thiazol-2-yl]-amine] | – | – | – | – | EC50 ([2]; AMT analogs tested for potency): 0.342 µM; EC50 [2, 6]: 0.342 µM
COc1ccc(-c2csc(Nc3ccccn3)n2)cc1OC [IND135, [4-(3,4-Dimethoxy-phenyl)-thiazol-2-yl]-pyridin-2-yl-amine] | – | – | – | – | EC50 ([2]; AMT analogs tested for potency): 1.23 µM
CCN1CCN(c2ccc(Nc3ccnc4cc5ccccc5cc34)cc2)CC1 [IND-2118] | 51 | 25 | 24 | 76 | –
Cc1ccc2[nH]c3c(c2c1)CCCC3NCC12CC3CC(CC(C3)C1)C2 (stereo not drawn) [IND-4176] | 53 | 9 | – | 98 | –
Cc1ccc2[nH]c3c(c2c1)CCCC3NC1CCCCC1 (stereo not drawn) [IND-5381] | 48 | 12 | 16 | 27 | –
O=C(Nc1ccc(Cl)cc1)Nc1cc(Cl)cc(Cl)c1 [IND-5942] | 51 | 3 | 8 | 91 | –

Compound | Inhibition of Baseline PrP^5c (%) Non-dividing Cells ELISA [3] [%] | Dividing Cells V (cell viability percentages) [1] [%] | Non-dividing Cells V (cell viability percentages) [1] [%] | Inhibition of Baseline PrP^5c (%) Dividing Cells ELISA ([2]; dividing cells) [%] | also measured
CC(=O)c1ccc(N2CCN(Cc3cccc(Br)c3)CC2)cc1 [IND-7046] | 39 | 14 | 2 | 67 | –
CC(=O)c1ccc(N2CCN(Cc3ccc(Br)s3)CC2)cc1 [IND-7190] | 34 | 8 | 12 | 97 | –
CC(=O)c1ccc(N2CCN(Cc3cccc(Cl)c3)CC2)cc1 [IND-7486] | 31 | 6 | 12 | 84 | –
O=C(Nc1ccc(F)c(Cl)c1)Nc1ccc(Cl)c(Cl)c1 [IND-8255] | 61 | 2 | 11 | 92 | –
O=C(Nc1ccccc1)Nc1ccc(F)c(Cl)c1 [IND-8314] | 56 | 7 | 17 | 87 | –
CNCCc1c(-c2ccccc2)n(-c2ccccc2)c2ccccc12 [IND-10094] | 46 | 19 | 21 | 81 | –
O=C(Nc1ccc(Cl)c(Cl)c1)NC(CC(=O)c1ccc([N+](=O)[O-])cc1)C(Cl)(Cl)Cl (stereo not drawn) [IND-10851] | 61 | 15 | 19 | 83 | –
COc1cc(CN2CCN(c3cccc(C)c3C)CC2)cc(Br)c1O [IND-15461] | 48 | – | 3 | 22 | –
Cc1ccc2c(c1)c1c(n2CC(O)CO)C(=O)CCC1 (stereo not drawn) [IND-15474] | 39 | 11 | 9 | 14 | –
COc1ccc(CN2CCN(c3ccc(C(C)=O)cc3)CC2)c(C)c1C [IND-17848] | 41 | 1 | 24 | 95 | –
CC(=O)c1ccc(N2CCN(CC(C)CCC=C(C)C)CC2)cc1 (stereo not drawn) [IND-18721] | 55 | – | 10 | 78 | –
CC(=O)c1ccc(N2CCN(Cc3ccc(F)cc3F)CC2)cc1 [IND-18785] | 30 | 30 | 20 | 85 | –
CC(=O)c1ccc(N2CCN(Cc3ccccc3Cl)CC2)cc1 [IND-19130] | 41 | 5 | 2 | 86 | –
O=C(Nc1ccc(Cl)cc1)Nc1ccc(Cl)c(F)c1 [IND-19237] | 66 | 2 | 26 | 25 | –
O=C(Nc1ccc(Cl)cc1)Nc1ccc(C(F)(F)F)cc1Cl [IND-19238] | 63 | – | 9 | 17 | –
CC(=O)c1ccc(N2CCN(Cc3c(C)n(C)n(-c4ccccc4)c3=O)CC2)cc1 [IND-19672] | 35 | – | – | 64 | –
Clc1ccc(N2CCN(C3CCSC3)CC2)cc1 (stereo not drawn) [IND-19847] | 51 | – | 3 | 42 | –
COc1ccc2[nH]c3c(OC)ncnc3c2c1 [IND-22103] | 37 | – | – | 81 | –
Nc1c(C(=O)Nc2cc(F)ccc2F)sc2nc(-c3ccncc3)ccc12 [IND-0024575] | – | – | – | – | EC50 ([2]; read-out: Antiprion activity EC50, thienopyridine analogs): 3.49 µM
COc1ccc2cc1Oc1ccc(cc1)C[C@H]1c3cc(c(OC)cc3CCN1C)Oc1c(OC)c(OC)cc3c1[C@H](C2)N(C)CC3 [Tetrandine] | – | – | – | – | Potency (μM) Cell Viability [1]: 5.009 µM; EC50 [2, 5]: 2.15 µM
Enoxaparin | – | – | – | – | Potency Cell Viability, mg/L [1]: >10 (mg/L)
